Measured values as given in PubChem BioAssay AID1259411 (Chemical Carcinogenesis Research Information System (CCRIS), 2018).
Activity calls are given as the source filed them. No rule for the calls is given here.

System: rodent carcinogenicity bioassays, tumor incidence
Test: CCRIS carcinogenicity studies
Method in brief: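 Archive of carcinogenicity, mutagenicity, tumor promotion and tumor inhibition results drawn from journals, NCI reports and other sources, expert-reviewed; covers 1985-2011 and is no longer updated.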

With `Nc1ncn[nH]1` as the molecule, how does the carcinogen call (Species: HAMSTER, Strain/Sex: SYRIAN/FEMALE, Route: ORAL, Dose: 0, 1, 10, 100 PPM IN DIET (TOTAL DOSE: 0; 0.07; 0.6; 6.6 G/KG) FOR 822-856 D (STUDY DURATION: LIFETIME), Dose: 0, 1, 10, 100 PPM IN DIET (TOTAL DOSE: 0; 0.07; 0.6; 6.6 G/KG) FOR 822-856 D (STUDY DURATION: LIFETIME)) read?
The carcinogen call was “inactive; negative”.

What about the carcinogen call (Species: HAMSTER, Strain/Sex: SYRIAN/MALE, Route: ORAL, Dose: 0, 1, 10, 100 PPM IN DIET (TOTAL DOSE: 0; 0.08; 0.8; 7.2 G/KG) FOR 885-979 D (STUDY DURATION: LIFETIME), Dose: 0, 1, 10, 100 PPM IN DIET (TOTAL DOSE: 0; 0.08; 0.8; 7.2 G/KG) FOR 885-979 D (STUDY DURATION: LIFETIME)) of the same molecule?
The carcinogen call was “inactive; negative”.

What about the carcinogen call (Species: MOUSE, Route: ORAL, Tumor Site: Type of Lesion: LIVER, THYROID GLAND) of the same molecule?
Its carcinogen call is “active; positive”.

And the carcinogen call (Species: MOUSE, Strain/Sex: NMRI/FEMALE, Route: ORAL, Dose: 0, 1, 10, 100 PPM IN DIET (TOTAL DOSE: 0; 0.17; 1.7; 18.2 G/KG) FOR 970-1027 D (STUDY DURATION: LIFETIME), Dose: 0, 1, 10, 100 PPM IN DIET (TOTAL DOSE: 0; 0.17; 1.7; 18.2 G/KG) FOR 970-1027 D (STUDY DURATION: LIFETIME))?
Its carcinogen call is “inactive; negative”.

What about the carcinogen call (Species: MOUSE, Strain/Sex: NMRI/MALE, Route: ORAL, Dose: 0, 1, 10, 100 PPM IN DIET (TOTAL DOSE: 0; 0.13; 1.3; 13.1 G/KG) FOR 1022-1028 D (STUDY DURATION: LIFETIME), Dose: 0, 1, 10, 100 PPM IN DIET (TOTAL DOSE: 0; 0.13; 1.3; 13.1 G/KG) FOR 1022-1028 D (STUDY DURATION: LIFETIME)) of the same molecule?
Its carcinogen call is “inactive; negative”.

And the carcinogen call (Species: RAT, Route: ORAL, Tumor Site: Type of Lesion: LIVER, THYROID GLAND)?
The carcinogen call was “active; positive”.

And the carcinogen call (Species: RAT, Route: SUBCUTANEOUS, Tumor Site: Type of Lesion: INJECTION SITE, LIVER, THYROID GLAND, Tumor Site: Type of Lesion: INJECTION SITE, LIVER, THYROID GLAND)?
Its carcinogen call is “active; positive”.

What about the carcinogen call (Species: RAT, Strain/Sex: WISTAR/FEMALE, Route: ORAL, Dose: 0, 1, 10, 100 PPM IN DIET (TOTAL DOSE: 0; 0.08; 0.8; 7.9 G/KG) FOR 1140-1143 D (STUDY DURATION: LIFETIME), Dose: 0, 1, 10, 100 PPM IN DIET (TOTAL DOSE: 0; 0.08; 0.8; 7.9 G/KG) FOR 1140-1143 D (STUDY DURATION: LIFETIME), Tumor Site: Type of Lesion: THYROID GLAND: MALIGNANT TUMOR) of the same molecule?
The carcinogen call was “active; positive”.

What about the carcinogen call (Species: RAT, Strain/Sex: WISTAR/MALE, Route: ORAL, Dose: 0, 1, 10, 100 PPM IN DIET (TOTAL DOSE: 0; 0.06; 0.6; 5.8 G/KG) FOR 1137-1143 D (STUDY DURATION: LIFETIME), Dose: 0, 1, 10, 100 PPM IN DIET (TOTAL DOSE: 0; 0.06; 0.6; 5.8 G/KG) FOR 1137-1143 D (STUDY DURATION: LIFETIME), Tumor Site: Type of Lesion: THYROID GLAND: MALIGNANT TUMOR) of the same molecule?
Its carcinogen call is “active; positive”.

Which results are given for `Clc1ccc(C(c2ccccc2Cl)C(Cl)(Cl)Cl)cc1` (stereo unspecified) (tested in a mixture with another compound)?
carcinogen call (Species: MOUSE, Strain/Sex: BALB/MALE,FEMALE, Route: DIET, Dose: 0, 2, 20, 250 PPM, Dose: 0, 2, 20, 250 PPM, Tumor Site: Type of Lesion: LIVER: HEPATOCELLULAR TUMOR): active; positive; carcinogen call (Species: MOUSE, Strain/Sex: CF-1/MALE,FEMALE, Route: DIET, Dose: 0, 250 PPM FOR 30 WK, Tumor Site: Type of Lesion: LIVER: HEPATOMA): active; positive; carcinogen call (Species: MOUSE, Strain/Sex: CF-1, Route: DIET, Dose: 0, 2, 10, 50, 250 PPM, Dose: 0, 2, 10, 50, 250 PPM, Tumor Site: Type of Lesion: LIVER: HEPATOCELLULAR TUMOR): active; positive

For `Nc1ccccc1C(=O)O`, which carcinogen call (Species: MOUSE, Strain/Sex: B6C3F1/FEMALE, Route: ORAL, Dose: 0, 25000, 50000 PPM IN DIET, Dose: 0, 25000, 50000 PPM IN DIET) is on record?
Its carcinogen call is “inactive; negative”.

And the carcinogen call (Species: MOUSE, Strain/Sex: B6C3F1/MALE, Route: ORAL, Dose: 0, 25000, 50000 PPM IN DIET, Dose: 0, 25000, 50000 PPM IN DIET)?
Its carcinogen call is “inactive; negative”.

What about the carcinogen call (Species: RAT, Strain/Sex: F344/FEMALE, Route: ORAL, Dose: 0, 15000, 30000 PPM IN DIET, Dose: 0, 15000, 30000 PPM IN DIET) of the same molecule?
The carcinogen call was “inactive; negative”.

And the carcinogen call (Species: RAT, Strain/Sex: F344/MALE, Route: ORAL, Dose: 0, 15000, 30000 PPM IN DIET, Dose: 0, 15000, 30000 PPM IN DIET)?
The carcinogen call was “inactive; negative”.

What does the source list for `COc1ccc(C(c2ccc(OC)cc2)C(Cl)(Cl)Cl)cc1`?
carcinogen call (Species: MOUSE, Strain/Sex: B6C3F1/FEMALE, Route: ORAL, Dose: 0, 997, 1994 PPM IN DIET, TWA, Dose: 0, 997, 1994 PPM IN DIET, TWA): inactive; negative; carcinogen call (Species: MOUSE, Strain/Sex: B6C3F1/MALE, Route: ORAL, Dose: 0, 1746, 3491 PPM IN DIET, TWA, Dose: 0, 1746, 3491 PPM IN DIET, TWA): inactive; negative; carcinogen call (Species: MOUSE, Strain/Sex: BALB/MALE, Route: ORAL, Dose: 750 PPM IN DIET, Tumor Site: Type of Lesion: TESTES: INTERSTITIAL CELL CARCINOMA): active; positive; carcinogen call (Species: RAT, Strain/Sex: OSBORNE-MENDEL/FEMALE, Route: ORAL, Dose: 0, 750, 1385 PPM IN DIET, TWA, Dose: 0, 750, 1385 PPM IN DIET, TWA): inactive; negative; carcinogen call (Species: RAT, Strain/Sex: OSBORNE-MENDEL/MALE, Route: ORAL, Dose: 0, 448, 845 PPM IN DIET, TWA, Dose: 0, 448, 845 PPM IN DIET, TWA): inactive; negative

`CN(C)c1ccc(N=Nc2ccccc2)cc1` was tested. Which carcinogen call (Species: DOG, Route: ORAL, Tumor Site: Type of Lesion: URINARY BLADDER) did it give?
The carcinogen call was “active; positive”.

What about the carcinogen call (Species: MOUSE, Route: SUBCUTANEOUS, Tumor Site: Type of Lesion: LIVER, INJECTION SITE) of the same molecule?
Its carcinogen call is “active; positive”.

And the carcinogen call (Species: MOUSE, Strain/Sex: B6C3F1/FEMALE, Route: INTRAPERITONEAL, Dose: 0, 0.3 UMOL/G IN TRIOCTANOIN ONCE ON DAY 1 FOLLOWED BY 0.4 UMOL/G ONCE ON DAY 8, 15 AND 22 (STUDY DURATION: 10 MO))?
The carcinogen call was “inactive; negative”.

And the carcinogen call (Species: MOUSE, Strain/Sex: B6C3F1/MALE, Route: INTRAPERITONEAL, Dose: 0, 0.017, 0.05, 0.15, 0.45 UMOL/G ONCE IN TRIOCTANOIN (STUDY DURATION: 10 MO), Dose: 0, 0.017, 0.05, 0.15, 0.45 UMOL/G ONCE IN TRIOCTANOIN (STUDY DURATION: 10 MO), Tumor Site: Type of Lesion: LIVER: HEPATOMA)?
The carcinogen call was “active; positive”.

What about the carcinogen call (Species: MOUSE, Strain/Sex: B6C3F1/MALE, Route: INTRAPERITONEAL, Dose: 0, 0.3 UMOL/G IN TRIOCTANOIN ONCE ON DAY 1 FOLLOWED BY 0.4 UMOL/G ONCE ON DAY 8, 15 AND 22 (STUDY DURATION: 10 MO), Tumor Site: Type of Lesion: LIVER: HEPATOMA) of the same molecule?
Its carcinogen call is “active; positive”.

And the carcinogen call (Species: RAT, Route: ORAL, Tumor Site: Type of Lesion: LIVER)?
The carcinogen call was “active; positive”.

What about the carcinogen call (Species: RAT, Strain/Sex: F344/MALE, Route: INTRAPERITONEAL, Dose: 0, 0.3 UMOL/G IN TRIOCTANOIN ONCE ON DAY 1 FOLLOWED BY 0.4 UMOL/G ONCE ON DAY 8, 15 AND 22 (STUDY DURATION: 10 MO)) of the same molecule?
The carcinogen call was “inactive; negative”.

Which carcinogen call (Species: RAT, Strain/Sex: F344/MALE, Route: ORAL, Dose: 0, 0.05% IN METHYL-DEFICIENT DIET FOR 8 MO, STUDY DURATION: 20 MO, Dose: 0, 0.05% IN METHYL-DEFICIENT DIET FOR 8 MO, STUDY DURATION: 20 MO, Tumor Site: Type of Lesion: LIVER: HEPATOCELLULAR CARCINOMA) does the source give for `CCSCCC(N)C(=O)O` (stereo unspecified) here?
The carcinogen call was “active; positive”.

And the carcinogen call (Species: RAT, Strain/Sex: F344/MALE, Route: ORAL, Dose: 0.25% IN DIET FOR 24 WK, Tumor Site: Type of Lesion: LIVER)?
The carcinogen call was “active; positive”.

And the carcinogen call (Species: RAT, Strain/Sex: OSBORNE-MENDEL/MALE,FEMALE, Route: ORAL, Dose: 0.25% IN BASAL DIET FOR 8-9 MO, Tumor Site: Type of Lesion: LIVER: CARCINOMA)?
Its carcinogen call is “active; positive”.

What about the carcinogen call (Species: RAT, Strain/Sex: SPRAGUE-DAWLEY, Route: ORAL, Dose: 0.25% IN DIET FOR 8 MO, Tumor Site: Type of Lesion: LIVER: CARCINOMA) of the same molecule?
Its carcinogen call is “active; positive”.

What about the carcinogen call (Species: RAT, Strain/Sex: WISTAR/MALE,FEMALE, Route: ORAL, Dose: 0.25% IN BASAL DIET FOR 8 MO THEN STOCK DIET FOR 2 MO, Tumor Site: Type of Lesion: LIVER: CARCINOMA) of the same molecule?
The carcinogen call was “active; positive”.

`O=[N+]([O-])c1ccc2ncccc2c1` was tested. Which carcinogen call (Species: RAT, Strain/Sex: F344/MALE,FEMALE, Route: ORAL, Dose: 0.05% IN DIET FOR 2 YR) did it give?
Its carcinogen call is “inactive; negative”.

With `C=CCN(N)CC=C` as the molecule, how does the carcinogen call (Species: MOUSE, Strain/Sex: SWISS/FEMALE, Route: ORAL, Dose: 0.03125% IN DRINKING WATER FOR LIFE, Tumor Site: Type of Lesion: LUNG: ADENOMA, ADENOCARCINOMA) read?
The carcinogen call was “active; positive”.

And the carcinogen call (Species: MOUSE, Strain/Sex: SWISS/MALE, Route: ORAL, Dose: 0.03125% IN DRINKING WATER FOR LIFE, Tumor Site: Type of Lesion: LUNG: ADENOMA, ADENOCARCINOMA, FORESTOMACH: SQUAMOUS CELL PAPILLOMA, CARCINOMA)?
The carcinogen call was “active; positive”.
